How the values were obtained:
[1] = biological target: T1, aromatase (Homo sapiens, UniProt P11511); test: Cell-free fluorescence-based aromatase inhibition assay (DBF hydrolysis); assay type: biochemical; design: purchased Corning (Woburn, MA, USA); settings: DBF substrate
T1 sequence (P11511 1-503): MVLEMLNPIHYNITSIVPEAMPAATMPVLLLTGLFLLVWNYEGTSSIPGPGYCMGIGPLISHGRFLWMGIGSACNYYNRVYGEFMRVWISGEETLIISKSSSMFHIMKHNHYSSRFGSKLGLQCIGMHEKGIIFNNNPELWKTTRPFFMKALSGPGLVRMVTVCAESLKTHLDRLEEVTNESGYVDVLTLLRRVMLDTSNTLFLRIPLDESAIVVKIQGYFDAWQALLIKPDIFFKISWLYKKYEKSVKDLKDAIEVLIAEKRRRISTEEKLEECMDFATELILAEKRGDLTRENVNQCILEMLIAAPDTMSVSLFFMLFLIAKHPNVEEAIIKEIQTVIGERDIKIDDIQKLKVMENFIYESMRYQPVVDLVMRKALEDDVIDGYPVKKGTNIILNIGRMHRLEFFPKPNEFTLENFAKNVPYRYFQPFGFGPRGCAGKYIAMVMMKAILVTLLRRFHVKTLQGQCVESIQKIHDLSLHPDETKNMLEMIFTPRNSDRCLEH
Experimental: Supersomes human CYP19 was obtained from Corning (Woburn, MA, USA). Analytical-grade acetonitrile, methanol, and ultrapure water were purchased from J. T. Baker (Phillipsburg, NJ, USA). Trifluoroacetic acid was of analytical grade and was purchased from Sigma-Aldrich.
The inhibition of aromatase activity by MHT and each component was assessed by measuring the fluorescence intensity of fluorescein produced by the hydrolysis of DBF [20, 28]. […] A 100 μL mixture of aromatase and substrate (2 μM DBF, 40 pmol/mL aromatase, and 4 mg/mL albumin in 50 mM potassium phosphate, pH 7.4) was then added to the sample, and the resulting mixture was incubated for 30 min at 37°C in the dark. After the reaction, the sample was incubated with 150 μL of 2N NaOH for an additional 2 h at 37°C to remove impurities other than fluorescein. […] All experiments were performed three times at separate times.
The results are expressed as the means ± SEMs from multiple experiments. Paired Student's t-tests with Tukey's multiple comparison tests were performed to compare two groups using PRISM software (GraphPad, CA, USA). A p value <0.05 was considered to be statistically significant. Additionally, IC50 values were calculated by sigmoidal dose-response curve fitting (variable slope) using PRISM software.

[2] = biological target: T1, aromatase; test: Cell-based aromatase assay: estrone ELISA in KGN cells given androstenedione; settings: estrone level by ELISA; maximum con. 5 mM; read-out: Aromatase inhibition IC50 in KGN cells
Experimental: The human granulosa-like tumor cell line KGN was obtained from RIKEN BioResource Center (Ibaraki, JPN). The cells were grown in Dulbecco's modified Eagle's medium/Ham's F-12 nutrient mix (DMEM/F-12, Welgen, Daejeon, KOR) supplemented with 5% (v/v) fetal bovine serum (FBS) and 0.5% antibiotics (100 U/mL penicillin and 100 μg/mL streptomycin, Gibco BRL, NY, USA) in a humidified atmosphere of 5% CO2 at 37°C. Prior to treatment with MHT and its components in all the experiments, the cells were cultured for 24 h by switching to phenol-red free DMEM/H-12 medium (Welgen, Daejeon, KOR) with 5% (v/v) charcoal-stripped FBS (HyClone, Logan, UT, USA), and the samples were treated under the same conditions.
Cells (4 × 10^4 cells/mL) were placed on a 96-well tissue culture plate and incubated in DMEM/F-12 medium with 5% charcoal-stripped FBS (HyClone, Logan, UT, USA) overnight. After the addition of MHT or its components, the cells were incubated for 24 h. […] The estrone concentration in each of the samples was measured at 450 nm using a Synergy/HTX multimode reader (Bio-Tek Instruments Inc., VT, USA) with an estrone ELISA kit (Abnova, CA, USA), and the cell viability was measured using a CCK-8 assay (Dojindo Laboratories, Tokyo, JPN).
Additionally, IC50 values were calculated by sigmoidal dose-response curve fitting (variable slope) using PRISM software.

SMILES | IC50 ([1]; maximum con. 10 mM) [µM] | IC50 [2] [µM] | IC50 ([1]; human CYP19 Supersomes) [µM]
O=C/C=C/c1ccccc1 [Cinnamaldehyde (4), cinnamaldehyde] | > 10000 |  | 
O=C(O)/C=C/c1ccccc1 [Cinnamic acid (3), cinnamic acid] | > 10000 |  | 
O=c1ccc2ccccc2o1 [Coumarin (2), coumarin] | > 10000 |  | 
CN[C@@H](C)[C@H](O)c1ccccc1 [Ephedrine (1), ephedrine] | > 10000 |  | 
CC1(C)[C@@H](O[C@H]2O[C@H](C(=O)O)[C@@H](O)[C@H](O)[C@H]2O[C@@H]2O[C@H](C(=O)O)[C@@H](O)[C@H](O)[C@H]2O)CC[C@]2(C)[C@H]3C(=O)C=C4[C@@H]5C[C@@](C)(C(=O)O)CC[C@]5(C)CC[C@@]4(C)[C@]3(C)CC[C@@H]12 [Glycyrrhizin (8), glycyrrhizin] | > 10000 |  | 
O=C1CC(c2ccc(O)cc2)Oc2cc(O)ccc21 (centres unmarked) [Liquiritigenin (7), liquiritigenin] | 1610 | 1410 | 
O=C1C[C@@H](c2ccc(O[C@@H]3O[C@H](CO)[C@@H](O)[C@H](O)[C@H]3O)cc2)Oc2cc(O)ccc21 [Liquiritin (5), liquiritin] |  |  | 530

From PMC6935813, “Assessment of the Aromatase Inhibitory Activity of Ma-Huang-Tang (MHT) and Its Active Compounds” (Evidence-based Complementary and Alternative Medicine : eCAM, 2019)
